Test results: publication PMC11251039, “Harnessing cholesterol uptake of malaria parasites for therapeutic applications” (EMBO Molecular Medicine, 2024)
Several values for one entry are separate records, joined by “and”; a condition that tells them apart may be missing. Equal values may be shown once. Read-outs that look alike come from different tables or passages of the source.

How the values were obtained:
[1] = tested on: asexual P. falciparum 3D7 wild-type parasites; assay: P. falciparum asexual growth inhibition assay (SYBR Safe DNA replication); type: cell-based, Plasmodium falciparum; conditions: for P. falciparum asexual growth, percentage of control: replicate values, source data Fig. 2B, listed as HJB8a53; for IC50: Plasmodium falciparum, read-out: IC50, P. falciparum asexual growth inhibition
Summary of the method: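 Sorbitol-synchronised ring-stage cultures at 1% parasitaemia and 1% haematocrit were exposed to 2-fold compound dilutions at 37 °C under microaerophilic conditions for 24, 48 or 72 h. Growth was read by SYBR Safe fluorescence of freeze-thaw lysates, with 200 nM chloroquine or artesunate defining background.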

[2] = tested on: Toxoplasma gondii tachyzoites (RH strain); assay: Toxoplasma growth inhibition assay (tdTomato fluorescence, in HFF cells); type: cell-based; conditions: Toxoplasma gondii, HFF, 72 h, read-out: IC50, T. gondii tachyzoite growth inhibition
Description: Fluorescence was measured daily with a fluorescence microplate reader for one week, and the background fluorescence from the time 0 reading was subtracted from all other measurements. […]
Toxoplasma Growth Inhibition Assays:
Growth inhibition was investigated as described previously (26). Fluorescent Toxoplasma gondii parasites were inoculated into an optical bottom 96-well plate containing confluent human foreskin fibroblast (HFF) host cells at a density of 2,000 parasites/well, with a serial dilution of each compound, or culture media/DMSO (0.1% v/v) alone. Plates were measured daily with a FluoStar Optima fluorescence plate reader at 540 nm excitation and 590 nm emission for one week, and the background fluorescence from the time 0 reading was subtracted from all other measurements. […]

[3] = tested on: human foreskin fibroblasts (HFF); assay: Human foreskin fibroblast growth inhibition assay (SYBR Safe); type: cell-based; conditions: 72 h
Description: HFF cell growth inhibition assays commenced by adding 5000 cells to each well of a 96-well plate. 10 µg/mL cycloheximide was used as a no-growth control. DNA replication (indicating growth) was measured at the specified time using SYBR Safe DNA Gel Stain (Invitrogen 33102) and a fluorescence microplate reader. […]
Human Foreskin Fibroblast Growth Inhibition Assays:
The HFF cell line was maintained under routine culture conditions in DMEM containing 3.7 g/L NaHCO3 supplemented with 10% v/v newborn calf serum (NCS), 50 units/mL penicillin, 50 μg/mL streptomycin, 10 μg/mL gentamicin, 0.25 μg/mL amphotericin B, and 0.2 mM L-glutamine at 37 °C in a humidified 5% CO2 incubator. […]
HFF cells were detached from a flask using 0.25% Trypsin with 0.2 g/L EDTA (Sigma T4049) and washed with culture media. Cells were incubated with a serial dilution of each compound, or media/DMSO alone. Cycloheximide at 10 µg/mL was used as a positive control to determine background fluorescence. Approximately 5 000 cells were seeded in each well. Plates were incubated at 37 °C for 72 hours (until reaching confluency) and the media was removed. Plates were transferred to a -18 °C freezer. Plates were thawed and SYBR Safe DNA Gel Stain (final concentration 1/10,000) diluted in lysis buffer (as above) was added. Fluorescence was read at 490 nm excitation/ 520 nm emission on a FLUOstar Optima fluorescence plate reader. […]

[4] = tested on: human embryonic kidney cells (HEK293); assay: Human embryonic kidney cell viability assay (MTT); type: cell-based; conditions: Homo sapiens; 96 h, HEK293; read-out: IC50, human embryonic kidney cell inhibition (viability)
Description: HEK293 cell viability assays commenced with 5000 cells per well. 10 µg/mL cycloheximide was used as a no-growth control. Metabolic capacity (indicating viability) was measured in an absorbance microplate reader after incubation with 0.45 mg/mL methylthiazolyldiphenyl-tetrazolium bromide (MTT; Sigma M2128) for 2 h followed by crystal solubilisation in SDS. […]
Human Embryonic Kidney Cell Viability Assays:
Human Embryonic Kidney Cell (HEK293) culture:
The HEK293 cell line was maintained under routine culture conditions in DMEM containing 3.7 g/L NaHCO3 supplemented with 10% FBS, 200 μM glutamine, 100 units/mL penicillin, and 100 μg/mL streptomycin at 37 °C in a humidified 5% CO2 incubator.
Cells were detached from a flask using 0.25% Trypsin with 0.2 g/L EDTA (Sigma T4049) and washed with culture media containing no phenol red. Cells were incubated with a serial dilution of each compound, or media/DMSO alone. The protein synthesis inhibitor cycloheximide (Sigma 01810) at 10 µg/mL was used as a positive control to determine background absorbance. 5,000 cells were seeded in each well. After 96 hours, 0.45 mg/mL methylthiazolyldiphenyl-tetrazolium bromide (MTT; Sigma M2128) was added and incubated for a further two hours, before mixing 1.1:1 with 10% w/v sodium dodecyl sulfate (SDS) to solubilise crystals and freezing the plate at -18 °C to stop the assay. […]

## CC(C)OC(=O)CCC(=O)O[C@H]1CC[C@H]2[C@@H]3CC=C4C[C@@H](O)CC[C@]4(C)[C@H]3CC[C@]12C [C-17-link]
[1]; 1.562500000 uM, 24 h
  P. falciparum asexual growth, percentage of control: 108.2% and 98.65% and 104.4% and 77.73% and 107.4% and 72.24% and 105.4% and 89.91% and 101.4%
[1]; 3.125000000 uM, 24 h
  P. falciparum asexual growth, percentage of control: 87.28% and 79.93% and 102.9% and 88.97% and 110.9% and 91.2% and 98.89% and 92.59% and 99.55%
[1]; 6.250000000 uM, 24 h
  P. falciparum asexual growth, percentage of control: 91.48% and 91.92% and 90.32% and 56.7% and 84% and 91.24% and 89.81% and 87.22% and 88.93%
[1]; 12.500000000 uM, 24 h
  P. falciparum asexual growth, percentage of control: 92.85% and 68.5% and 79.1% and 86.73% and 62.26% and 77.95% and 77.18% and 79.4% and 77.07%
[1]; 25.000000000 uM, 24 h
  P. falciparum asexual growth, percentage of control: 63.84% and 71.98% and 51.99% and 71.68% and 75.89% and 90.82% and 60.89% and 60.24% and 75.04%
[1]; 50.000000000 uM, 24 h
  P. falciparum asexual growth, percentage of control: 21.83% and 36.37% and 18.23% and 26.53% and 42.29% and 44.3% and 28.27% and 41.39% and 35.03%
[1]; 100.000000000 uM, 24 h
  P. falciparum asexual growth, percentage of control: 3.756% and 9.306% and -2.555% and -31.33% and 5.372% and 1.633% and -19.35% and 8.501% and 11.78%
[1]; 3D7, 24 h, 24 h, starting at ring stages
  IC50: 31.6 µM
[1]; 3D7, 48 h, 48 h
  IC50: 40.2 µM
[1]; 3D7, 72 h, 72 h
  IC50: 30.3 µM
[2]
  IC50: 24.2 µM
[3]; HFF
  Inhibition of fibroblast growth: no notable inhibition
[3]; Homo sapiens, Fibroblast, read-out: IC50, human fibroblast growth inhibition
  IC50: > 75 µM
[4]
  IC50: 43.6 µM
